Patent US11866752B2, “Cysteine polysulfidation and mitochondrial bioenergetics regulated by cysteinyl-tRNA synthetase” (Bio-Xcelerator, Inc., priority 2018, dated 2024)

Key:
EcCARS = biological target: T1, EcCARS (Escherichia coli, UniProt P21888); type: biochemical; conditions: for Persulfide generation by EcCARS with cysteine enantiomer as substrate: substrate enantioselectivity
T1 construct: His tag (inferred from nickel-NTA purification); made in house
Source text: The data are means ±s.d. […] Data represent means ±s.d.

[1] = test system: mitochondrial ETC in HEK293T cells; assay: Effect of suppression of ETC on metabolic profiles of CysSSH; type: cell-based, human; conditions: HPE-IAM labeling LC-MS/MS
Description: Effect of suppression of ETC on metabolic profiles of CysSSH. The mito-chondrial ETC in HEK293T cells was inhibited either by a complex III inhibitor, antimycin A, or by elimination of mitochondrial DNA (mtDNA) induced by ethidium bromide. For the direct but partial ETC (complex III) inhibition, WT and CARS2 KO cells were treated with various concentrations of antimycin A for 1 h, followed by methanol extraction for measurement of CysSSH and its related sulfide derivatives by HPE-IAM labeling LC-ESI-MS/MS analysis as described earlier. […] The quantity of each sulfide produced from CARS2 in the cells was determined by subtracting the amount of each sulfide in CARS2 KO HEK293T cells from that in the WT cells, after quantification of each metabolite via HPE-IAM labeling LC-MS/MS analysis. Changes in the amounts of CysSSH (ACysSSH) and HS— (AHS-) induced by complex III inhibition by antimycin A or by mtDNA elimination in WT and CARS2 KO HEK293T cells were then calculated.

mouse CARS1 = biological target: T2, mouse CARS1 (Mus musculus, UniProt Q9ER72); assay: CysSSH and CysSSSH biosynthesis by recombinant mouse CARS1
T2 sequence (Q9ER72 1-748 isoform Q9ER72-2): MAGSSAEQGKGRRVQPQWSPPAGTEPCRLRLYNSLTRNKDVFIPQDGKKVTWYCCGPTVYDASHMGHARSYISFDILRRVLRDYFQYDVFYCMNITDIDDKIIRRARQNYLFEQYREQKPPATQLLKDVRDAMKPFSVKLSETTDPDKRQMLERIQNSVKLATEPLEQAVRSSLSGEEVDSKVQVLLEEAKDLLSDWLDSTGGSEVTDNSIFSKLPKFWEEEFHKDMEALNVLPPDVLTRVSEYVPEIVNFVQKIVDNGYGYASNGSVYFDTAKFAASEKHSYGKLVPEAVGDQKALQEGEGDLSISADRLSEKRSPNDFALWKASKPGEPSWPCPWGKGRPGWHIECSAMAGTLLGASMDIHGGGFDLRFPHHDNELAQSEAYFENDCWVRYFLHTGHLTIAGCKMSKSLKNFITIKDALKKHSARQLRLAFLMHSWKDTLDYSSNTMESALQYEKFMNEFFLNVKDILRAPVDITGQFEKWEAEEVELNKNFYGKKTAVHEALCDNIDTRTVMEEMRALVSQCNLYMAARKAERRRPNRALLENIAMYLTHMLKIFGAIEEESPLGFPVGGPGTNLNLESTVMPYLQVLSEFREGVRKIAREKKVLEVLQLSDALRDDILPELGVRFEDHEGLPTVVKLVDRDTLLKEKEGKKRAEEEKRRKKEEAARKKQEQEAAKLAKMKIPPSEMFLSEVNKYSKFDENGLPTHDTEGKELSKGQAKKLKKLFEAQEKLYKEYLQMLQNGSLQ

human CARS2 = biological target: T3, human CARS2 (Homo sapiens, UniProt Q9HA77); assay: CysSSH and CysSSSH biosynthesis by recombinant human CARS2
T3 sequence (Q9HA77 1-564): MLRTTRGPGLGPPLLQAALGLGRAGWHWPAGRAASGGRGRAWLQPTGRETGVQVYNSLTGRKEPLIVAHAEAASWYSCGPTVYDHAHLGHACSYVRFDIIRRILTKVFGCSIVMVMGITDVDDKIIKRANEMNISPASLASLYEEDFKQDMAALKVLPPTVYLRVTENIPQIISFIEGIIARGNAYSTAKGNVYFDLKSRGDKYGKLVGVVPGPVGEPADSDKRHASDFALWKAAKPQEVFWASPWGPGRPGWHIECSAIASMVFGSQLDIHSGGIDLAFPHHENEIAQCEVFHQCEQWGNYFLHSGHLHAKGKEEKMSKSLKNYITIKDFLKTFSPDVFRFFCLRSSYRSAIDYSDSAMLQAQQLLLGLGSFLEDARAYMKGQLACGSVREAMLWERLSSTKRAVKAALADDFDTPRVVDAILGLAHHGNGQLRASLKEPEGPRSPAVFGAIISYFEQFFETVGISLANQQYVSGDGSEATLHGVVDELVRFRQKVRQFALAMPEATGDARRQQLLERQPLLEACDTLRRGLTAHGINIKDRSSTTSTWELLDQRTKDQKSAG

ADH5 = biological target: T4, ADH5 (Homo sapiens, UniProt P11766); assay: HPE-IAM labeling of ADH5 cysteine polysulfides, LC-ESI-MS/MS; conditions: treatment of ADH5
T4 construct: made in house; host or cells: Escherichia coli
T4 sequence (P11766 whole entry, species assumed): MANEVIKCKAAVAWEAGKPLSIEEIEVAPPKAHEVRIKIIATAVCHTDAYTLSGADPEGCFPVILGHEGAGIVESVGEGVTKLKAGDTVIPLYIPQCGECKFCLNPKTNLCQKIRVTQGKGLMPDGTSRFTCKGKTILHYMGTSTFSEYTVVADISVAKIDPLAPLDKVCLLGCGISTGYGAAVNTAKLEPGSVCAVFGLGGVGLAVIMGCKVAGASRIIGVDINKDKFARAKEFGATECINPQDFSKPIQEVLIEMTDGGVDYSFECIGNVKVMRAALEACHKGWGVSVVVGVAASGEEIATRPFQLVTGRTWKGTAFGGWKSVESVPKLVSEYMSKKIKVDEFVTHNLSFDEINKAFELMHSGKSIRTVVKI
Source text: Redox property of cysteine and protein polysulfides. CysSSHhas unique redox-active properties that distinguishes it from the cysteine (CysSH) thiol. […] Moreover, dialkylpolysulfides can also be nucleophilic and electrophile-mediated cleavage of S—S bonds is established28. The unique properties and reactivity of polysulfides allowed us to develop several analytical techniques aimed at determining endogenous production of LMW and protein-bound polysulfides (Supplementary FIG. 3). We first developed a convenient method for selective detection of polysulfidated proteins: the biotin-polyethylene glycol (PEG)-conjugated maleimide (biotin-PEG-MAL) labeling gel shift assay (PMSA; Supplementary FIG. 3a)15. […] We then used liquid chromatography-electrospray ionizationtandem mass spectrometry (LC-ESI-MS/MS) with 0-(4-hydroxyphenyl) ethyl iodoacetamide (HPE-IAM) as a trapping agent to identify and precisely quantify various hydropolysulfides, and also to verify the site specificity of polysulfidation as well as the number of sulfur atoms involved in proteins (Supplementary FIG. 5, and Supplementary Table 2). […]

CSE = assay: Kinetic parameters of recombinant CSE with L-cystine as substrate; type: biochemical, rat and human

T1 sequence (P21888 whole entry): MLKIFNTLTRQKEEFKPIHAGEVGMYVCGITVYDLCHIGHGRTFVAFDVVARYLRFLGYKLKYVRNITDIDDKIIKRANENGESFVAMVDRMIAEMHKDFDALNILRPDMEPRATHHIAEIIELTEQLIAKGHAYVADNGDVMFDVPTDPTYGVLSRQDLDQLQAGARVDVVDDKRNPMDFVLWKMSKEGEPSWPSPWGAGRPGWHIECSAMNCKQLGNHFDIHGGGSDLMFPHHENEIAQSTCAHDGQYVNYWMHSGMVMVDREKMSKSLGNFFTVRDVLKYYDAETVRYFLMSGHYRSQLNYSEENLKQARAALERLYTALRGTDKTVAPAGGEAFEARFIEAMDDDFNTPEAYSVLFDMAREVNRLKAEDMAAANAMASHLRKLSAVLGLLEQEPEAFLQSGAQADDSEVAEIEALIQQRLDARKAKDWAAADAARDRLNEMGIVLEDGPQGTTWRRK

## Nc1ncnc2c1ncn2[C@@H]1O[C@H](COP(=O)(O)OP(=O)(O)OP(=O)(O)O)[C@@H](O)[C@H]1O [ATP]
EcCARS
  Dependence of persulfide synthase activity of EcCARS on added factor: but not on ATP

## N[C@@H](CS)C(=O)O [L-cysteine]
EcCARS
  Persulfide generation by EcCARS with cysteine enantiomer as substrate: demonstrated activity

## antimycin A
[1]
  Change in CysSSH: significant increase
  Change in HS- production: reduction

## Cc1ncc(COP(=O)(O)O)c(C=O)c1O [pyridoxal phosphate]
EcCARS
  Dependence of persulfide synthase activity of EcCARS on added factor: depended partly
Mouse CARS1; mouse CARS1
  Dependence of CysS-(S)n-H producing activity on PLP: depended on the presence of PLP
Human CARS2; human CARS2
  Dependence of CysS-(S)n-H producing activity on PLP: depended on the presence of PLP
Human CARS2; no enzyme, no >100 μM PLP
  Cysteine persulfide production in reaction mixture of cysteine and PLP alone: No appreciable cysteine persulfide production was detected

## N[C@H](CS)C(=O)O [D-cysteine]
EcCARS
  Persulfide generation by EcCARS with cysteine enantiomer as substrate: but not D-cysteine demonstrated activity

## CCN1C(=O)C=CC1=O [N-ethylmaleimide]
ADH5
  HPE-IAM labeling of CysSH and CysSSH/SSSH of ADH5: completely abrogated

B1: CSE: cystathionine γ-lyase (cystathionase), recombinant rat and human (protein, UniProt P32929 1-405, looked up)
Cystathionine gamma-lyase: MQEKDASSQGFLPHFQHFATQAIHVGQDPEQWTSRAVVPPISLSTTFKQGAPGQHSGFEYSRSGNPTRNCLEKAVAALDGAKYCLAFASGLAATVTITHLLKAGDQIICMDDVYGGTNRYFRQVASEFGLKISFVDCSKIKLLEAAITPETKLVWIETPTNPTQKVIDIEGCAHIVHKHGDIILVVDNTFMSPYFQRPLALGADISMYSATKYMNGHSDVVMGLVSVNCESLHNRLRFLQNSLGAVPSPIDCYLCNRGLKTLHVRMEKHFKNGMAVAQFLESNPWVEKVIYPGLPSHPQHELVKRQCTGCTGMVTFYIKGTLQHAEIFLKNLKLFTLAESLGGFESLAELPAIMTHASVLKNDRDVLGISDTLIRLSVGLEDEEDLLEDLDQALKAAHPPSGSHS
modifications: also rat
notes: cystathionine γ-lyase (cystathionase), recombinant rat and human
CSE
  Km: > 200 µM

B2: mouse CARS1: recombinant cytosolic cysteinyl-tRNA synthetase (protein, UniProt Q9ER72 2-831, looked up)
Cysteine--tRNA ligase, …: AGSSAEQAADYRSILSISDEAARVQALDQHLSTRSYIQGYSLSQADVDVFRQLSAPPADSRLFHVARWFRHIEALLGGPQGRDEPCRLQASKGRRVQPQWSPPAGTEPCRLRLYNSLTRNKDVFIPQDGKKVTWYCCGPTVYDASHMGHARSYISFDILRRVLRDYFQYDVFYCMNITDIDDKIIRRARQNYLFEQYREQKPPATQLLKDVRDAMKPFSVKLSETTDPDKRQMLERIQNSVKLATEPLEQAVRSSLSGEEVDSKVQVLLEEAKDLLSDWLDSTGGSEVTDNSIFSKLPKFWEEEFHKDMEALNVLPPDVLTRVSEYVPEIVNFVQKIVDNGYGYASNGSVYFDTAKFAASEKHSYGKLVPEAVGDQKALQEGEGDLSISADRLSEKRSPNDFALWKASKPGEPSWPCPWGKGRPGWHIECSAMAGTLLGASMDIHGGGFDLRFPHHDNELAQSEAYFENDCWVRYFLHTGHLTIAGCKMSKSLKNFITIKDALKKHSARQLRLAFLMHSWKDTLDYSSNTMESALQYEKFMNEFFLNVKDILRAPVDITGQFEKWEAEEVELNKNFYGKKTAVHEALCDNIDTRTVMEEMRALVSQCNLYMAARKAERRRPNRALLENIAMYLTHMLKIFGAIEEESPLGFPVGGPGTNLNLESTVMPYLQVLSEFREGVRKIAREKKVLEVLQLSDALRDDILPELGVRFEDHEGLPTVVKLVDRDTLLKEKEGKKRAEEEKRRKKEEAARKKQEQEAAKLAKMKIPPSEMFLSEVNKYSKFDENGLPTHDTEGKELSKGQAKKLKKLFEAQEKLYKEYLQMLQNGSLQ
Mouse CARS1; recombinant mouse CARS1
  CysS-(S)n-H producing activity: strong
